The source of these data is patent publication US9040547B2, “Pyrrolopyrimidine and purine derivatives” (PFIZER INC., priority 2011, dated 2015).

SMILES strings stand for the structures. A value given as a limit tells only on which side of the number the result lay.

The term IC50 denotes the concentration that gives 50% inhibition.

Type in all cases: cell-based
For test [1], the target named is EGFR L858R+T790M (Homo sapiens, UniProt P00533, L858R/T790M). Description: pEGFR Y1068 ELISA assay, NIH3T3/EGFR_L858R+T790M cells.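 Also: sandwich ELISA of EGFR phosphorylated at Tyr1068 in lysates of stably transfected NIH/3T3 cells, 11-point threefold dilution series run in duplicate.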 Particulars: 3T3 cell line, 2 hrs compound treatment; read-out: pEGFRY1068 ELISA3T3T790M—L858R IC50. In general terms: ELISA stands for enzyme-linked immunosorbent assay.
The target in test [2] is EGFR L858R (Homo sapiens, UniProt P00533, L858R). Briefly: pEGFR Y1068 ELISA assay, NIH3T3/EGFR_L858R cells.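 Also: sandwich ELISA of phospho-EGFR Tyr1068 in lysates of stably transfected NIH/3T3 pools after 2 h compound exposure at 37 °C, 11-point threefold dilution series run in duplicate.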 The following applies: 3T3 cell line, 2 hrs compound treatment; read-out: pEGFRY1068 ELISA3T3 L858R IC50.
In test [3] the target is T1, EGFR wildtype, endogenous (Homo sapiens, UniProt P00533).
T1 construct: A549 (EGFR wildtype, endogenous); host or cells: A549
Description: pEGFR Y1068 ELISA assay, A549 cells.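 Also: sandwich ELISA of phospho-EGFR Tyr1068 in cell lysates, cells exposed to compound for 2 h before EGF stimulation, 11-point threefold dilution series run in duplicate.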 The following applies: full serum media, stimulated 10 min with EGF (40 ng/mL), read-out: pEGFRY1068 ELISAA549 IC50.

In test [4] the target is EGFR E746-A750 deletion (Homo sapiens, UniProt P00533, DEL746-750). Description: pEGFR Y1068 ELISA assay, NIH3T3/EGFR_E746-A750 deletion cells.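 Also: sandwich ELISA on cell lysates detecting phospho-EGFR at Tyr1068, compounds run as 11-point threefold dilution series in duplicate, IC50 from inhibition of this phosphorylation signal.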 The following applies: 3T3 Del cells, 2 hrs compound treatment; read-out: ELISA7E 3T3 Del IC50.
Test [5] deals with T2, EGFR Del (PC9) (Homo sapiens, UniProt P00533, DEL746-750).
T2 construct: endogenous in cells; host or cells: PC-9
Description: EGFR ELISA, PC9 Del cells.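 Also: cellular EGFR autophosphorylation at Tyr1068 quantified by sandwich ELISA of cell lysates after 2 h compound exposure at 37 °C, 11-point threefold dilution series.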 Particulars: read-out: EGFR_ELISA9E PC9 Del IC50.

In test [6] the test system is NIH3T3/EGFR_L858R. Briefly: Cell proliferation assay (CellTiter-Glo), NIH3T3/EGFR_L858R. The following applies: Mus musculus, NIH3T3, 120 h, 3T3 cell line, three to five days of compound treatment, read-out: 3T3 L858R IC50. The protocol: (§1) Cell proliferation was measured using the CellTiter-Glo® Luminescent Cell Viability Assay. The assay involves the addition of a single reagent (CellTiter-Glo® Reagent) directly to cells cultured in serum-supplemented medium. The assay uses this one-step addition to induce cell lysis and generate a luminescent signal proportional to the amount of ATP present which is directly proportional to the number of metabolically active cells present in culture. The following cell lines were evaluated in this assay: NIH3T3/EGFR_L858R, NIH3T3/EGFR_E746-A750_deletion, NIH3T3/EGFR L858R+T790M, NIH3T3/EGFR_E746-A750_deletion+T790M, PC-9, PC9-DRH, NCI-H1975, and NCI-H3255. NIH/3T3 parental cells, NCI-H1975, and NCI-H3255 were purchased from the American Type Culture Collection (Manassas, Va.), and PC-9 cells were obtained from Japan. All cells were cultured according to recommendations. NIH/3T3 cells were grown in DMEM (Invitrogen, Carlsbad, Calif.) supplemented with 10% newborn calf serum (Invitrogen), and NIH3T3/EGFR mutant cells were grown in complete media with 5 μg/mL puromycin (Invitrogen). PC-9, NCI-H1975, and NCI-H3255 were grown in RPMI (Invitrogen, Carlsbad, Calif.) supplemented with 10% FBS (Sigma, St Louis, Mo.), and PC9-DRH cells were grown in complete media with 2 uM PF-00299804. Plasmids (pLPCX) with various EGFR constructs were made by GenScript (Piscataway, N.J.), and stable pools of NIH/3T3 cells expressing these constructs were made at Pfizer La Jolla. PC9-DRH cells were generated at Pfizer La Jolla by exposing cells to increasing concentrations of PF-00299804. Cells were plated in complete culture media (3000-5000 cells/well, 50 μl/well) on the bottom of white clear-bottom tissue culture treated microtiter plates (#3610, Corning Inc, Corning, N.Y.) and allowed to adhere overnight at 37° C., 5% CO2. The following day, compound dilution plates were prepared in 96 well clear V-bottom 0.5 mL polypropylene block plates (#3956, Corning, Inc). All cell lines were not evaluated for each compound. Each compound evaluated was prepared as a DMSO stock solution (10 mM). Compounds were tested in duplicate on each plate, with an 11-point serial dilution curve (1:3 dilution). Compound treatment (50 μl) was added from the compound dilution plate to the cell plate. The highest compound concentration was 1 or 10 μM (final), with a 0.3% final DMSO (#D-5879, Sigma, St Louis, Mo.) concentration. Plates were then incubated at 37° C., 5% CO2. After three to five days of compound treatment, CellTiter-Glo® Reagent (#G7573, Promega, Madison, Wis.) was prepared in one of two ways. If thawing a frozen aliquot of CellTiter-Glo® Reagent, the aliquot was thawed and equilibrated to room temperature prior to use while keeping it protected from light. Alternatively, new bottles of CellTiter-Glo® Buffer and CellTiter-Glo® Substrate were thawed and equilibrated to room temperature prior to use. CellTiter-Glo® Buffer (100 mL) was transferred into the amber bottle containing CellTiter-Glo® Substrate to reconstitute the lyophilized enzyme/substrate mixture, forming the CellTiter-Glo® Reagent. The reconstituted reagent was mixed by gently inverting the contents to obtain a homogeneous solution, and went into solution easily in less than one minute. Any unused reconstituted CellTiter-Glo® Reagent was immediately aliquoted and frozen at −20° C., protected from light. Cell plates were equilibrated at room temperature for approximately 30 minutes. An equivolume amount of CellTiter-Glo® Reagent (100 μL) was added to each well. Plates were mixed for two minutes on an orbital shaker to induce cell lysis, and then allowed to incubate at room temperature for 10 minutes to stabilize the luminescent signal. Luminescence was recorded using the PerkinElmer EnVision Excite Multilabel Reader used for endpoint reading for Luminescence detection (Waltham, Mass.). Data were analyzed using a four-parameter fit in Microsoft Excel. […]
A general note: In ATP-based viability assays light output follows the ATP content of the culture.

For test [7], the system named is NIH3T3/EGFR_E746-A750_deletion. Briefly: Cell proliferation assay (CellTiter-Glo), NIH3T3/EGFR_E746-A750_deletion. The following applies: Mus musculus, NIH3T3, 120 h, 3T3 cell line, three to five days of compound treatment, read-out: 3T3 del IC50. The protocol:
as §1

In test [8] the test system is NIH3T3/EGFR L858R+T790M. Briefly: Cell proliferation assay (CellTiter-Glo), NIH3T3/EGFR L858R+T790M. The following applies: Mus musculus, NIH3T3, 120 h, 3T3 cell line, three to five days of compound treatment, read-out: 3T3 L858R_T790M IC50.
Test [9] concerns NIH3T3/EGFR_E746-A750_deletion+T790M. Description: Cell proliferation assay (CellTiter-Glo), NIH3T3/EGFR_E746-A750_deletion+T790M. Particulars: Mus musculus, NIH3T3, 120 h, 3T3 cell line, three to five days of compound treatment, read-out: 3T3 del_T790M IC50. The protocol:
as §1

Chain of EGFR L858R (P00533 25-1210 L858R): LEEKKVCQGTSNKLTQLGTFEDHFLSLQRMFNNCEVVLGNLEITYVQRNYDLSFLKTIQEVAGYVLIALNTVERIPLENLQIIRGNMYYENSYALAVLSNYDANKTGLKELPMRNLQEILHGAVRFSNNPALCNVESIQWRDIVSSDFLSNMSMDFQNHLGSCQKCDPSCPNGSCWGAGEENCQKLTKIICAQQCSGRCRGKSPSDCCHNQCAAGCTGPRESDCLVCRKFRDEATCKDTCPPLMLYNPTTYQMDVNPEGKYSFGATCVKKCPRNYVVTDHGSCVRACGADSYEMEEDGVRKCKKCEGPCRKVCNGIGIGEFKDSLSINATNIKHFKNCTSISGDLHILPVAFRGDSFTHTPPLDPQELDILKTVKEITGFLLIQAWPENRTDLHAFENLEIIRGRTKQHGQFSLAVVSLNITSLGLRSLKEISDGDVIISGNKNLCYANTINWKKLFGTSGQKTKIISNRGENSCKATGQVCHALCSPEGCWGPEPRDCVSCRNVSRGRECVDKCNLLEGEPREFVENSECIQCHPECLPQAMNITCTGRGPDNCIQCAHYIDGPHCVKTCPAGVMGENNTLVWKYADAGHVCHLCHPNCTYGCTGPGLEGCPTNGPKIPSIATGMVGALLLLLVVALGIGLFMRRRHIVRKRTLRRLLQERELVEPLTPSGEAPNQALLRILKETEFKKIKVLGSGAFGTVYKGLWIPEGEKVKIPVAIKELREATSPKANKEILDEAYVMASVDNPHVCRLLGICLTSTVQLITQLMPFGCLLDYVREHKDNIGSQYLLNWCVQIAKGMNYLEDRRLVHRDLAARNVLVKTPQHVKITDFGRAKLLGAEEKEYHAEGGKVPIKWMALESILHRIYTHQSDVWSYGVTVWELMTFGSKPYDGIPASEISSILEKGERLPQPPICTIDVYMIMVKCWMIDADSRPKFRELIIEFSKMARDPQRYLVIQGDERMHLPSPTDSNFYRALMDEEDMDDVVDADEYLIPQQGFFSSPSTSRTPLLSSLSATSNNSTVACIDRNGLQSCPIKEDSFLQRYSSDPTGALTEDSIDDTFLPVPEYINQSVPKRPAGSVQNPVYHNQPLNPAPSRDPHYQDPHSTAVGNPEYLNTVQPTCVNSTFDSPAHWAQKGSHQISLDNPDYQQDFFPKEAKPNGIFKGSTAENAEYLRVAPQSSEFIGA
Chain of EGFR L858R+T790M (P00533 25-1210 T790M/L858R): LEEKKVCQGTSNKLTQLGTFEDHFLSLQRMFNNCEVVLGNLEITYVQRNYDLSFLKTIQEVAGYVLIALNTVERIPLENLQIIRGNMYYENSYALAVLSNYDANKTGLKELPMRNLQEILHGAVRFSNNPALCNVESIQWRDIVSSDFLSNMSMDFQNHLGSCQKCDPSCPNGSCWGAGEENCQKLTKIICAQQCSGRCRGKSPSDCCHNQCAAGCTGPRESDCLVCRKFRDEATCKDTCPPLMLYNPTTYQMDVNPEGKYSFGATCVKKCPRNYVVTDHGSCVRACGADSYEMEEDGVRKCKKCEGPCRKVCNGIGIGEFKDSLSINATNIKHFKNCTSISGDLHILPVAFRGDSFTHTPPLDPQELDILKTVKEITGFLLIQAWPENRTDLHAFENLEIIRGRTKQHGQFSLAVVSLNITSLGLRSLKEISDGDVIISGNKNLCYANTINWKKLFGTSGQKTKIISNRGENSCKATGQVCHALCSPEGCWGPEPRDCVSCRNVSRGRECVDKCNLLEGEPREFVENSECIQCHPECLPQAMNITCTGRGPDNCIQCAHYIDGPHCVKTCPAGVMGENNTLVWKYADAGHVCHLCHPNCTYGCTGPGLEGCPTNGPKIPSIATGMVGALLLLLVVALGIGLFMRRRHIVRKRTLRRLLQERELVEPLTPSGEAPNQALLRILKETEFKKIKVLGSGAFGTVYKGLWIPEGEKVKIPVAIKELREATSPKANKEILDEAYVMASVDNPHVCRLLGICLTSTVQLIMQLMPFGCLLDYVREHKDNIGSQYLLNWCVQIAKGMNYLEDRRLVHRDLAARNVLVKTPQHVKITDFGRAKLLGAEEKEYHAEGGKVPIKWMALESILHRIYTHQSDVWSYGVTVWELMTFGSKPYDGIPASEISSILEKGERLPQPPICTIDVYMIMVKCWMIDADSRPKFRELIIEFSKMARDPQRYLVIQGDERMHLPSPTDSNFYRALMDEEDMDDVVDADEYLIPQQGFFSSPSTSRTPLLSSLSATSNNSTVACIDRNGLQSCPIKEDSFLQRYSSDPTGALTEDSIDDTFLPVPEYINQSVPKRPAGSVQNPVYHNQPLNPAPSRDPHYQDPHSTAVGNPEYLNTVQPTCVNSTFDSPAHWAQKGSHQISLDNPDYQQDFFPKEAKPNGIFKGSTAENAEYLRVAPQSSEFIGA
T1 sequence (P00533 25-1210): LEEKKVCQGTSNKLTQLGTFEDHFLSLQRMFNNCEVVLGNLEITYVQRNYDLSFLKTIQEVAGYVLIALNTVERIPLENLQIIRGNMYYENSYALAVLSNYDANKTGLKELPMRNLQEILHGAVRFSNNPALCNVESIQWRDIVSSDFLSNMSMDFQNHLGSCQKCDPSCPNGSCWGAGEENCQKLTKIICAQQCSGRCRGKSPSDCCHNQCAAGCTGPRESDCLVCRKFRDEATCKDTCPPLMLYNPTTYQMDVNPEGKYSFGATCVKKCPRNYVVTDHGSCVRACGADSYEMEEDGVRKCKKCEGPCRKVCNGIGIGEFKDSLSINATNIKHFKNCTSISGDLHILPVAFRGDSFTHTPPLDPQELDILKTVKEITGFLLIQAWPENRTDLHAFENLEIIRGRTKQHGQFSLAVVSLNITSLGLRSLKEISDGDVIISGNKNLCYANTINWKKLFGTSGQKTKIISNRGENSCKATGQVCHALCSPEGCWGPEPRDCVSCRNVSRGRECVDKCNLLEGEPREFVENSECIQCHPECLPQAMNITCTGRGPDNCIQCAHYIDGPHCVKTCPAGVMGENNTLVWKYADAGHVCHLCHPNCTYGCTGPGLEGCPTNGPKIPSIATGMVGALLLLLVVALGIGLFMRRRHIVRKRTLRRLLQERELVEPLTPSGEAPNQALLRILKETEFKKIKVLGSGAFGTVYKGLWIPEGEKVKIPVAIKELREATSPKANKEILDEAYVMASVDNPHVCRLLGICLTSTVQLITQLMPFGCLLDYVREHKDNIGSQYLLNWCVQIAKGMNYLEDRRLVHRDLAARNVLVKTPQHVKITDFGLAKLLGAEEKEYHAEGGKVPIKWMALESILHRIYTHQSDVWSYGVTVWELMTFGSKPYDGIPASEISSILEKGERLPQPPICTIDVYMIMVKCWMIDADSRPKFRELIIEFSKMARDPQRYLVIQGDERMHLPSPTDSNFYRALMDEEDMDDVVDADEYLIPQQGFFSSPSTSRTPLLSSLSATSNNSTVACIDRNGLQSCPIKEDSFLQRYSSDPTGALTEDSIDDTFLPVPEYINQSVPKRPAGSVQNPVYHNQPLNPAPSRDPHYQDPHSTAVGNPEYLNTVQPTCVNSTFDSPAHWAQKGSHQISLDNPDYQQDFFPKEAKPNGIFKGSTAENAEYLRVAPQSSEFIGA
Chain of EGFR E746-A750 deletion (P00533 with tags, fused parts or gaps DEL746-750): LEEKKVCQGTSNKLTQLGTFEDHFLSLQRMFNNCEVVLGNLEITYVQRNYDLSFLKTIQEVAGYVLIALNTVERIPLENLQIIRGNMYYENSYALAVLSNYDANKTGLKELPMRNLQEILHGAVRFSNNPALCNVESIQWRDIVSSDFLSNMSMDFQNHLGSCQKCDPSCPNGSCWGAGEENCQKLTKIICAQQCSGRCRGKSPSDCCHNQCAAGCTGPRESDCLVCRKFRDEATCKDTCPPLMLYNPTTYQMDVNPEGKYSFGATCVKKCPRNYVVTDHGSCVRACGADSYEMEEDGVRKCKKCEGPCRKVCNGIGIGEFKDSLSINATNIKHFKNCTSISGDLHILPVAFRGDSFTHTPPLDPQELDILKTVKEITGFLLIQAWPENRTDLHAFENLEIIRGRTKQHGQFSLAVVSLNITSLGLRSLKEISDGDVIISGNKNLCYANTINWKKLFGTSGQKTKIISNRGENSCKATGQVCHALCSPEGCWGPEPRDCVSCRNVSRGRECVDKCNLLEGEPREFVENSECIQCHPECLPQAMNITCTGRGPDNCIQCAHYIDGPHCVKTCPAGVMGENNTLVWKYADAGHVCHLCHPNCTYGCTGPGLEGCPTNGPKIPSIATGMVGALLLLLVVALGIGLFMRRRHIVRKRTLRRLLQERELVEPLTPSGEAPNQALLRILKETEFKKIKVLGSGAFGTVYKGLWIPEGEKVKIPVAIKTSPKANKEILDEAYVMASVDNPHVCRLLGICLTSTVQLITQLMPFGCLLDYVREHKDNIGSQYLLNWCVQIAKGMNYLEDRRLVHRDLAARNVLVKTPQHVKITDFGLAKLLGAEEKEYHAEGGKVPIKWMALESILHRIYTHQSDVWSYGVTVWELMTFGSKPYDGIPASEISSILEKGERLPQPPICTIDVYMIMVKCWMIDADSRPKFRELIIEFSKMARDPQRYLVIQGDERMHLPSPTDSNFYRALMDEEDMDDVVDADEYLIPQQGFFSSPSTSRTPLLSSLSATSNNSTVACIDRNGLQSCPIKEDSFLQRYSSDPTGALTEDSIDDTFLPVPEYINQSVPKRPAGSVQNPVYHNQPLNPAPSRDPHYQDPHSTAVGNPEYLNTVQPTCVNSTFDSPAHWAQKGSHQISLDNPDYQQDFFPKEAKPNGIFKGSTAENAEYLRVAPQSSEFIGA

In the case of `C=CC(=O)N[C@H]1C[C@@H](Oc2nc(Nc3cnn(C)c3)nc3[nH]cc(C#N)c23)C1` (single isomer, unassigned) [Example 5, N-[cis-3-({5-cyano-2-[(1-methyl-1H-pyrazol-4-yl)amino]-7H-pyrrolo[2,3-d]pyrimidin-4-yl}oxy)cyclobutyl]prop-2-enamide], the IC50 in [1] is 221 nM; in test [2], 1810 nM; in [3] it was more than 10000 nM; in test [4], 1320 nM; in test [5] it was 982 nM; in [6], more than 1000 nM. Further, the IC50 in [7], in test [8] and in test [9] was 100 to 1000 nM throughout.
For the compound `C=CC(=O)N(C)[C@H]1C[C@H](Oc2nc(Nc3cn(C)nc3C)nc3[nH]cc(Cl)c23)C1` [Example 62], the IC50 in test [1] is 10 nM; in [2] it was 218 nM; in test [3], more than 10000 nM; in [4], 237 nM; in test [5], 558 nM; in test [6], 10 to 100 nM. The values for the IC50 in [7], in [8] and in test [9] were 10 to 100 nM, 10 to 100 nM and less than 10 nM, respectively.
`C=CC(=O)Nc1cccc(Oc2nc(Nc3cnn(C)n3)nc3[nH]ccc23)c1` [Example 40]: the IC50 in [1] is 20 nM; in [2], 99 nM; in test [3], more than 6380 nM; in [4], 44 nM; in test [6], more than 1000 nM; in test [7], 10 to 100 nM. Moreover, the IC50 in [8] was 10 to 100 nM; in test [9], less than 10 nM.
For `C=CC(=O)Nc1cccc(Oc2nc(Nc3ccn(CC)n3)nc3[nH]ccc23)c1` [Example 22], the IC50 in test [1] was 11 nM; in [2] it was 81 nM; in test [3] it was more than 10000 nM; in test [4] it was 27 nM; in [6], 100 to 1000 nM; in test [7], less than 10 nM. For the same compound, the results for the IC50 in test [8] and in [9] were 10 to 100 nM and less than 10 nM, respectively.
As to `C=CC(=O)N1C[C@H](COc2nc(Nc3cn(C)nc3OC)nc3[nH]cc(Cl)c23)[C@@H](OC)C1` [Example 70], the IC50 is 12 nM in [1]; 113 nM in test [2]; more than 10000 nM in test [3]; 269 nM in test [4]; 592 nM in [5]; 100 to 1000 nM in [6]. In addition, the IC50 in test [7] is 100 to 1000 nM; in test [8] it was 100 to 1000 nM; in test [9], 10 to 100 nM.
Take `C=CC(=O)N1C[C@H](COc2nc(Nc3cnn(C)c3)nc3[nH]cc(Cl)c23)[C@@H]([C@H](C)O)C1` (single isomer, unassigned) [Example 10]: the IC50 in test [1] was 80 nM; in [2] it was 1810 nM; in [3], more than 10000 nM; in [4], 1020 nM; in [6], more than 1000 nM; in test [7], 100 to 1000 nM. Further, the IC50 in test [8] is more than 1000 nM; in test [9], 10 to 100 nM.
Regarding `C=CC(=O)N1C[C@@H]2CN(c3nc(Nc4cnn(C)c4)nc4[nH]cc(Cl)c34)C[C@@H]2C1` [Example 71], the IC50 in [1] was 20 nM; in [2], 143 nM; in test [3], more than 5460 nM; in [4], 356 nM; in test [6] it was 100 to 1000 nM; in [7], 10 to 100 nM. Further, the IC50 in [8] was in the range of 100 to 1000 nM; in test [9], 10 to 100 nM.
In the case of `C=CC(=O)N[C@H]1C[C@H](Oc2nc(Nc3cnn(C)c3)nc3[nH]cc(Cl)c23)C1` [Example 63], the IC50 in test [1] was 67 nM; in test [2], 2010 nM; in test [3], more than 10000 nM; in [4], 1220 nM; in test [6], more than 1000 nM; in test [7], more than 1000 nM. Also, the IC50 is more than 1000 nM in test [8] and 100 to 1000 nM in [9].
Consider `C=CC(=O)N1C[C@H](COc2nc(Nc3cn(C)nc3CC)nc3[nH]cc(F)c23)[C@@H](OC)C1` [Example 68], for which the IC50 in [1] is 42 nM; in [2], 208 nM; in [3], more than 10000 nM; in test [4] it was 1060 nM; in [6], 100 to 1000 nM; in test [7], 100 to 1000 nM. Further, the IC50 lay in the range of 100 to 1000 nM in test [8] and 10 to 100 nM in [9].
Turning to `C=CC(=O)Nc1cc(F)cc(Oc2nc(Nc3cnn([C@@H]4CCN(C)C4)c3)nc3[nH]ccc23)c1` [Example 107], the IC50 in test [1] was 3 nM; in test [2], 26 nM; in test [3] it was 2170 nM; in test [4], 12 nM; in [6], 10 to 100 nM; in test [7], less than 10 nM. For the same compound, the figures for the IC50 in [8] and in test [9] were 10 to 100 nM and less than 10 nM, respectively.
With `C=CC(=O)Nc1cccc(Oc2nc(Nc3ccn(C)n3)nc3[nH]cc(C#N)c23)c1` [Example 36], the IC50 in test [1] is 20 nM; in test [2] it was 418 nM; in test [3] it was more than 10000 nM; in [4] it was 45 nM; in test [6], more than 1000 nM; in test [7], 10 to 100 nM. The IC50 in test [8] was 100 to 1000 nM; in [9], 10 to 100 nM.
With `C=CC(=O)Nc1cccc(Oc2nc(Nc3cnn(CCN(C)C)c3)nc3[nH]ccc23)c1` [Example 2, N-(3-{[2-({1-[2-(dimethylamino)ethyl]-1H-pyrazol-4-yl}amino)-7H-pyrrolo[2,3-d]pyrimidin-4-yl]oxy}phenyl)prop-2-enamide], the IC50 in test [1] is 11 nM; in test [2], 141 nM; in [3], 2920 nM; in test [4] it was 29 nM; in [6], 100 to 1000 nM; in test [7], less than 10 nM. Moreover, the IC50 in test [8] and in [9] was less than 10 nM throughout.
For `C=CC(=O)N1CC[C@@H](Oc2nc(Nc3cnn(C)c3)nc3[nH]cc(Cl)c23)C1` [Example 65], the IC50 is 44 nM in test [1]; 510 nM in test [2]; more than 10000 nM in test [3]; 1170 nM in [4]; 100 to 1000 nM in [6]; 100 to 1000 nM in [7]. For the same compound, the IC50 in test [8] lay within 100 to 1000 nM; in test [9] it was 10 to 100 nM.
